Assay [1] concerns tracheal phenol red excretion in ICR mice. Briefly: Expectorant test, phenol red excretion method in mice. The assay is classed as in vivo, mouse. As for the experimental part: • Animals: male ICR mice; • Drugs and reagents: Mucosolvan (ambroxol hydrochloride tablets), phenol red, sodium bicarbonate, protein BD-11; • Instruments: centrifuge (Sigma-3K15 type), balance (XS105DU type), Microplate tester (BIO-TEK type).
Experiment grouping: • Solvent control group; • Mucosolvan 30 mg/kg group; • Protein BD-11, 20 mg/kg group, 50 mg/kg group.
The animals were fasted and water was taken freely 16 hours before the experiment. Orally administered Mucosolvan and different doses of protein BD-11 (administration volume 10 ml/kg) in groups, and the solvent control group was given the same volume of distilled water. One hour later, 2.5% phenol red solution was injected intraperitoneally. Mice were sacrificed by neck dislocation after 30 minutes. Take a trachea from below the thyroid cartilage to the branch of the trachea, and put the trachea into 3 ml 5% NaHCO3 solution and let it stand for 3 hours. Take 1 ml of the supernatant and centrifuge at 3000 rpm for 5 minutes. Measure and record the absorbance at 546 nm. According to the standard curve of phenol red, the excretion of phenol red was calculated.
Record the time point of oral administration, the time point of intraperitoneal injection of 2.5% phenol red solution, and the time point of taking the trachea respectively; The absorbance of each group of samples was measured by the microplate reader at 546 nm, Calculate the excretion of phenol red according to the standard curve of phenol red. Calculate the mean and standard error of the data in each group, and use TTEST to compare the solvent control group with other groups, and P<0.05 is considered as a significant difference.
Give Mucosolvan (30 mg/kg) and different doses of protein BD-11 (20 mg/kg, 50 mg/kg). One hour later, 2.5% phenol red solution was intraperitoneally injected, and 30 minutes later, the mice were sacrificed by neck dislocation. Take the trachea from below the thyroid cartilage to the branch of the trachea, put the trachea into 3 ml of 5% NaHCO3 solution and let it stand for 3 hours, take 1 ml of supernatant, centrifuge at 3000 rpm for 5 minutes, measure and record the absorbance at 546 nm. According to the standard curve of phenol red, the excretion of phenol red was calculated.

Assay [2] concerns acetic acid writhing in ICR mice. Briefly: Acetic acid writhing test in ICR mice. It counts as in vivo, mouse. How it is done: • Animals: male ICR mice; • Drugs and reagents: aspirin, physiological saline, glacial acetic acid, protein BD-11.
Experiment grouping: • Model group; • Aspirin 300 mg/kg group; • Protein BD-11, 50 mg/kg group, 200 mg/kg group.
One day after the experimental animals adapt to the environment, Aspirin 300 mg/kg, protein BD-11 50 mg/kg, 200 mg/kg were given orally one hour in advance, and the administration volume was 10 ml/kg; Then, 0.6% acetic acid solution was injected intraperitoneally, and the incubation period (seconds) and frequency of writhing in the animal was observed within 15 minutes.
Calculate the mean and standard error of the data in each group. Compared with the model group by TTEST, P<0.05 was considered as statistically different.
One hour after oral administration of aspirin 300 mg/kg and different doses of protein BD-11 (50 mg/kg, 200 mg/kg), 0.6% acetic acid solution was intraperitoneally injected to observe the writhing incubation period and frequency of ICR mice.
0.6% acetic acid solution was injected into the abdominal cavity of mice, which caused deep and large area and long-term painful stimulation, causing the mice to writhe (the abdomen was contracted into an “S” shape, the trunk and hind legs were stretched, the buttocks were raised and creeping). The incubation time to start writhing and times of writhing in mice were used as the pain response indexs to determine whether the test sample had analgesic effect. […] Compared with the model group, P<0.05, which is statistically significant.
(An intraperitoneal irritant provokes the stretching counted in writhing tests.)

Assay [3] deals with lipopolysaccharide (LPS) induced fever in SD rats. Briefly: Lipopolysaccharide (LPS) induced fever model in SD rats. It counts as in vivo, rat. Particulars: aspirin 300 mg/kg oral. As for the experimental part:
• Animals: 230-260 grams of male SD rats; • Drugs: lipopolysaccharide (LPS, SIGMAL-2880), aspirin (SIGMA A2093), protein BD-11; • Instruments: electronic balance (SARTORIUS BP121S type), electronic clinical thermometer (CITIZEN CT-513W type).
Experiment grouping: • Normal control group; • Model group: lipopolysaccharide fever model; • Positive control group: Aspirin 300 mg/kg group; • Protein BD-11, 10 mg/kg group, 50 mg/kg group. Method: the method of intraperitoneal injection of Lipopolysaccharide to replicate rat fever model.
(§1) Preparation of experimental animals: After the experimental animals adapt to the experimental environment (temperature 22° C.±2° C., relative humidity 50%±2%) for 1 day. Pre-adaptation to measure rectal temperature at 8:00 and 15:00, rats were fasted and water was taken freely 12 h before experiment, and let the animal to empty its feces before measuring the rectal temperature. Apply petroleum jelly to the electronic thermometer probe before each temperature measurement. Insert the rat rectum 2 cm (can be marked at 2 cm to ensure that the depth of each insertion is consistent), and record the body temperature after the reading is stable.
Intraperitoneal injection of lipopolysaccharide to replicate rat fever model: The body temperature of the rats was measured before modeling. Qualified rats with a body temperature of 36.2-37.3° C. were selected and randomly divided into groups with 8 rats in each group. After oral administration of aspirin and different doses of protein BD-11, lipopolysaccharide (20 µg/kg, 2 ml/kg) was injected intraperitoneally immediately, and the normal control group was injected intraperitoneally with an equal volume of normal saline. The body temperatures of the rats were monitored after 2 hours for a total of 8 hours.
(§2) According to the body temperature measured at each time point on the day of the experiment, calculate the mean, standard deviation and standard error of the body temperature of each group of rats. The data of each group was compared with TTEST, and P<0.05 was considered as a significant difference.
Immediately after oral administration of aspirin (300 mg/kg), protein BD-11 (10 mg/kg, 50 mg/kg), intraperitoneal injection of 20 µg/kg lipopolysaccharide was performed to establish a model. The animal body temperature was monitored at 2 hours, 4 hours, 6 hours, and 8 hours after modeling.

Assay [4] has as its system yeast-induced fever model in SD rats. Briefly: Yeast-induced fever model in SD rats. Particulars: aspirin 300 mg/kg oral. It counts as in vivo, rat. As for the experimental part: • Animals: 230-260 grams of male SD rats;; • Drugs: yeast (OXOID LP0021), aspirin (SIGMA A2093), protein BD-11; • Instruments: electronic balance (SARTORIUS BP121S type), electronic clinical thermometer (CITIZEN CT-513W type).
Experiment grouping: • Normal control group; • Model group: yeast fever model; • Positive control group: Aspirin 300 mg/kg group; • Protein BD-11, 10 mg/kg group, 50 mg/kg group.
as §1
Subcutaneous injection of dry yeast to replicate rat fever model: The body temperature of the rats was measured before modeling. Qualified rats with a body temperature of 36.2-37.3° C. were selected and randomly divided into groups with 8 rats in each group. After oral administration of aspirin and different doses of protein BD-11, 20% yeast suspension (10 ml/kg) was injected subcutaneously immediately, and the normal control group was injected intraperitoneally with an equal volume of normal saline. The body temperatures of the rats were monitored after 2 hours for a total of 8 hours.
as §2
Immediately after oral administration of aspirin (300 mg/kg), protein BD-11 (10 mg/kg, 50 mg/kg), subcutaneous injection of 20% yeast was performed to establish a model. The animal body temperature was monitored at 2 hours, 4 hours, 6 hours, and 8 hours after modeling.

The mark [5] stands for this setting: Aspirin 300 mg/kg, P<0.05 vs model group.
Where [6] appears, read: 2, 4, 6 and 8 hours after modeling, P<0.05 vs model group.

Each structure is given as a SMILES string. Where a name gives a salt, the structure may show the parent alone. Marks after values point to notes of the source that are not given here.

In turn, `Nc1c(Br)cc(Br)cc1CN[C@H]1CC[C@H](O)CC1` [Mucosolvan, ambroxol hydrochloride, reference compound] gave a Phenol red excretion in assay [1] (Mucosolvan 30 mg/kg oral, X±SEM, n=10) of 1.061 ± 0.117 µg/mL. Further, in assay [1] (Mucosolvan 30 mg/kg, P<0.05), the “Amount of phenol red excretion vs solvent control group” value was “significantly increased”.
Turning to `CC(=O)Oc1ccccc1C(=O)O` [aspirin, reference compound], in assay [2] (setting [5]), the “Effect on incubation period of writhing” value was “significantly delay”. Besides, the “Effect on times of writhing” value in assay [2] (setting [5]) is “reduce the times of writhing”. The compound further registered a Writhing incubation period in assay [2] (aspirin 300 mg/kg oral, 0.6% acetic acid i.p., n=13) of 290.3 ± 37.0 s. In assay [2] (aspirin 300 mg/kg oral, within 15 minutes, n=13), this compound had a Frequency of writhing of 15.2 ± 2.9 times. Moreover, the “Effect on the increase in body temperature of model rats” value in assay [3] (setting [6]) and in assay [4] (setting [6]) was “can effectively inhibit the increase in body temperature” each time. The “Body temperature 2 hours after modeling” value in assay [3] (2 h after LPS 20 µg/kg i.p., n=8) stood at 36.8 ± 0.1 °C; in assay [4] (2 h after 20% yeast s.c., n=8) it was 37.0 ±0.1 °C. Besides, the “Body temperature 4 hours after modeling” value in assay [3] (4 h after LPS 20 µg/kg i.p., n=8) was 36.9### °C; in assay [4] (4 h after 20% yeast s.c., n=8) it was 37.0±0.1 °C. Further, the “Body temperature 6 hours after modeling” value was 36.8## °C in assay [3] (6 h after LPS 20 µg/kg i.p., n=8) and 37.0±0.1 °C in assay [4] (6 h after 20% yeast s.c., n=8). Also, the “Body temperature 8 hours after modeling” value in assay [3] (8 h after LPS 20 µg/kg i.p., n=8) was 36.9±0.1 °C; in assay [4] (8 h after 20% yeast s.c., n=8) it was 37.0±0.1 °C.

For the origin of these results see patent US20230183305A1, “KERATIN BD-11, PREPARATION METHOD THEREFOR AND PHARMACEUTICAL COMPOSITION AND USE THEREOF” (INSTITUTE OF MATERIA MEDICA, CHINESE ACADEMY OF MEDICAL …, priority 2019, published 2023).
